# Measurements from patent US8252796B2, “1-butyl-2-hydroxyaralkyl piperazine derivatives and the uses as anti-depression medicine thereof” (CSPC Zhonggi Pharmaceutical Technology (Shijiazhuang) Co. …, priority 2008, dated 2012).
# Where two headings read alike, the source gives them in different places.
# Key:
# [1] = target: T1, reuptake of NA by brain synaptosomes (prefrontal cortex) (Rattus norvegicus, UniProt Q9WTR4); assay: Inhibition of [3H]NA reuptake by rat brain synaptosomes, single concentration (Example 35); type: biochemical; details: test substance 10 μmol/L; inhibitory rate of 0.1 mM venlafaxine taken as 100%
# T1 construct: from tissue; host or cells: rat prefrontal cortex synaptosomes
# T1 sequence (Q9WTR4 1-597): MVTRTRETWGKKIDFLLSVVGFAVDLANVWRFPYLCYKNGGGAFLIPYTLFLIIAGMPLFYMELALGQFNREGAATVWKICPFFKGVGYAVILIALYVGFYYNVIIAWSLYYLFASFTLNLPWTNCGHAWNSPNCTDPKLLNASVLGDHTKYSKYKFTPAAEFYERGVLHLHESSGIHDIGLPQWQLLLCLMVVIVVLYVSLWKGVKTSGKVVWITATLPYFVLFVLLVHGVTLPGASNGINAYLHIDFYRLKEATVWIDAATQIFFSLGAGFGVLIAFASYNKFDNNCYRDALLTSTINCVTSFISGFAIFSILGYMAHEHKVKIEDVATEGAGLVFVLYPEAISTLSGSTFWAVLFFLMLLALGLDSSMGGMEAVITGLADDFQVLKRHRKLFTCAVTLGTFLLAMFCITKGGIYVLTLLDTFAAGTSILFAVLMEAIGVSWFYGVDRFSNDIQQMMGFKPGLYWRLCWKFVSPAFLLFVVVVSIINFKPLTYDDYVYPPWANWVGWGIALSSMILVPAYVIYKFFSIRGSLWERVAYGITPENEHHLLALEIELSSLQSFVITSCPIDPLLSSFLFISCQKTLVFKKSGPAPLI
# Protocol: (§1) Studies on the reuptake of monoamine neurotransmitters by brain synaptosomes was performed, which is a currently important mean adopted in the worldwide in pharmacological studies of central nervous. This method can not only be used to study the action mechanism of a drug, but also be used for screening new drugs acting by this mechanism.
# (§2) Male SD rats were sacrificed by cervical dislocation and then the brains thereof were taken out rapidly by decollation and placed on ice. Related rain tissues (for [^3H]5-HT and [^3H]NA reuptake experiment, prefrontal cortex was taken; for [^3H]DA reuptake experiment, striatum was taken) were separated and weighed. 10 times (V/W) of 0.32 mol/L ice-cold sucrose solution was added and was homogenized electrically with glass-teflon. The homogenate was centrifugated at 4° C. at 1000 g×10 min. Then the supernatant was taken and centrifugated at 4° C. at 17000 g×20 min. The precipitation was suspended in 30 volume of KRH Buffer (125 mM NaCl, 4.8 mM KCl, 1.2 mM CaCl2, 1.2 mM MgSO4, 1.0 mM KH2PO4, 22 mM NaHCO3, 25 mM HEPES, 10 mM Glucose, 10 μM Pargyline, 0.2 mg/ml Ascorbic Acid) and then was preserved in an ice bath for use. (for NA reuptake experiment, the cortex needed was suspended in 20 volume of KRH Buffer)
# (§3) Stock solution of the test substance was thawed immediately before use and diluted with KBH Buffer to 100 μmol/L, 50 μl thereof was added in 500 μl of total reaction system, and the final concentration was 10 μmol/L. Then 50 μl suspended synaptic prepared above was added and mixed evenly, incubated in water bath for 30 min at 37° C. Then […] [^3H] 5-HT (50 nmol/L [^3H]DA or […] [^3H]NA) was added. After incubated at 37° C. for 10 min, the reaction system was immediately taken out and the reaction was stopped by adding 2 ml of ice-cold 150 mmol/L Tris-HCl buffer solution. The samples were collected on the circular fiberglass membrane by vacuum filtration, and the membrane was washed 3 times with 3 ml of ice-cold Tris-HCl buffer solution. The filtration membrane was removed, baked for 15 min in a far-infrared oven and placed into an EP tube. 1.5 ml scintillation fluid was added overnight and was tested by liquid scintillation counter. For the solvent control total binding tube and the non-specific binding tube, no test substance was added; for the total binding tube, 50 μl solvent was added.
# [2] = target: T2, reuptake of 5-HT by brain synaptosomes (prefrontal cortex) (Rattus norvegicus, UniProt P31652); assay: Inhibition of [3H]5-HT reuptake by rat brain synaptosomes, single concentration (Example 35); type: biochemical; details: test substance 10 μmol/L; inhibitory rate of 0.1 mM venlafaxine taken as 100%
# T2 construct: from tissue; host or cells: rat prefrontal cortex synaptosomes
# T2 sequence (P31652 whole entry): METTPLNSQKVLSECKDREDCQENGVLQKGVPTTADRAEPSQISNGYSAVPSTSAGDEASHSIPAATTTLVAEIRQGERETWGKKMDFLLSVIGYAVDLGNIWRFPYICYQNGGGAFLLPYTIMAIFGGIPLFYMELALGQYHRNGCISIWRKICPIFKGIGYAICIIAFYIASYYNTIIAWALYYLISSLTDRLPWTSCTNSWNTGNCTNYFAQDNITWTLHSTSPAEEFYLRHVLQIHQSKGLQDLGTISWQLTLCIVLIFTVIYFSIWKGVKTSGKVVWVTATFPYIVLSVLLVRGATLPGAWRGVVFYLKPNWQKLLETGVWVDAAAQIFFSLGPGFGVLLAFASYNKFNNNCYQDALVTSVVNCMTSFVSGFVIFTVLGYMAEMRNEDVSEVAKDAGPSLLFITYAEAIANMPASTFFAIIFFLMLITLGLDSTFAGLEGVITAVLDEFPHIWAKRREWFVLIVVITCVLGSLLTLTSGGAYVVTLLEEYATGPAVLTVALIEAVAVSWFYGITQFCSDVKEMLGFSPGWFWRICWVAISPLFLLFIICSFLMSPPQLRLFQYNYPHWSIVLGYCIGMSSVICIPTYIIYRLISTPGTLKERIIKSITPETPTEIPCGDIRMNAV
# Protocol: as §1, §2, §3
# [3] = target: T3, reuptake of DA by brain synaptosomes (striatum) (Rattus norvegicus, UniProt P23977); assay: Inhibition of [3H]DA reuptake by rat brain synaptosomes, single concentration (Example 35); type: biochemical; details: test substance 10 μmol/L; inhibitory rate of 0.1 mM 6-hydroxy DA taken as 100%
# T3 construct: from tissue; host or cells: rat striatum synaptosomes
# T3 sequence (P23977 whole entry): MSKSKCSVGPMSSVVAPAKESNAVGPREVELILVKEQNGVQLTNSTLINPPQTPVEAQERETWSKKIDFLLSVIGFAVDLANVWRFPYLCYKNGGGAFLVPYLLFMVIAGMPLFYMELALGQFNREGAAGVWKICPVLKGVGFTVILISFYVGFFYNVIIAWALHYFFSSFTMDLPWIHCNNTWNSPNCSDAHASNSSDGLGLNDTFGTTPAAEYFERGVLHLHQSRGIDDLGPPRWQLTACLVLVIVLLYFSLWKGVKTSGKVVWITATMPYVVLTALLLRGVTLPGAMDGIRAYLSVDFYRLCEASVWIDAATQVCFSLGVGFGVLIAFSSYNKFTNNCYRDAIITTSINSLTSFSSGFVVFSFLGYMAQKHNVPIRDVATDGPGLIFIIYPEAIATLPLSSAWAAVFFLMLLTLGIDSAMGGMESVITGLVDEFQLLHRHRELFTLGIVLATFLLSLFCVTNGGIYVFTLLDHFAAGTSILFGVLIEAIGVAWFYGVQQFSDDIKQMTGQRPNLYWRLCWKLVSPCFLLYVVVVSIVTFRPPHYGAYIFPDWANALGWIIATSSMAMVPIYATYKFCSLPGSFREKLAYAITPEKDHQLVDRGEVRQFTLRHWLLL
# Protocol: as §1, §2, §3
# ICR mice = assay: Mice Forced Swimming Test (in vivo antidepression activity); details: for swimming test: immobility time: n = 12, mean±SD
# [4] = target: T4, reuptake of [3H]5-HT by prefrontal cortex synaptosomes (Rattus norvegicus, UniProt P31652); assay: IC50 for inhibiting reuptake of [3H]5-HT by brain synaptosomes (Example 36); type: biochemical; details: mean, n = 3~4
# T4 construct: from tissue; host or cells: rat prefrontal cortex synaptosomes
# T4 sequence (P31652 whole entry): as the sequence (P31652 whole entry) above
# Protocol: as §2, with “The precipitation was suspended in 30 volume of KRH Buffer (125 mM NaCl, 4.8 mM KCl, 1.2 mM CaCl2, 1.2 mM MgSO4, 1.0 mM KH2PO4, 22 mM NaHCO3, 25 mM HEPES, 10 mM Glucose, 10 μM Pargyline, 0.2 mg/ml Ascorbic Acid) and then was preserved in an ice bath for use.” left out
# (§4) The compounds were used for the studies on inhibition effect (IC50) on reuptake of [^3H]5-HT/NA/DA. At least 5 concentrations each time were settled for each test compound. Each concentration was determined by the average of double twin tubes and the test was repeated for more than 3 times. A series of concentrations of the compounds were prepared by gradient dilution before use. 50 μl thereof was added in total reaction system. Then 50 μl suspended synaptic membrane was added and mixed evenly, incubated in water bath at 37° C. for 30 min. Then 10 nmol/L [^3H] 5-HT (or 50 nmol/L [^3H]DA or 40 nmol/L [^3H]NA) was added and incubated in water bath at 37° C. for 10 min (for [^3H]NA, incubated for 5 min). For the [^3H]5-HT reuptake experiment, 50 μL of fluoxetine (100 μmol/L) was added to the non-specific binding tube; for the [^3H]DA reuptake experiment, 50 μL of cocaine (600 μmol/L) was added to the non-specific binding tube; for the [^3H]NA reuptake experiment, 50 μL of desipramine (100 μmol/L) was added to the non-specific binding tube; for the solvent control, solvent was added to the total binding tube, but no test compound added.
# (§5) Sigmoidal curve fitting was performed for the data obtained from all of the test drugs by Origin 6.1, and the IC50 value was calculated.
# [5] = target: T5, reuptake of [3H]DA by striatum synaptosomes (Rattus norvegicus, UniProt P23977); assay: IC50 for inhibiting reuptake of [3H]DA by brain synaptosomes (Example 36); type: biochemical; details: mean, n = 3~4
# T5 construct: from tissue; host or cells: rat striatum synaptosomes
# T5 sequence (P23977 whole entry): as the sequence (P23977 whole entry) above
# Protocol: as §2
# (§6) 1. Preparation of Rat Brain Synaptosomes (the Same as Example 35)
# as §4, §5
# [6] = target: T6, reuptake of [3H]NA by prefrontal cortex synaptosomes (Rattus norvegicus, UniProt Q9WTR4); assay: IC50 for inhibiting reuptake of [3H]NA by brain synaptosomes (Example 36); type: biochemical; details: mean, n = 3~4
# T6 construct: from tissue; host or cells: rat prefrontal cortex synaptosomes
# T6 sequence (Q9WTR4 1-597): as the sequence (Q9WTR4 1-597) above
# Protocol: as §2, §6, §4, §5
# [7] = Pharmacokinetics and bioavailability, single i.v. and oral administration in SD rat; type: in vivo; details: male, plasma; for Cmax: read-out: Cmax; for AUC (0-t): read-out: AUC (0-t); for half-life: read-out: half life (T½) (converted)
# Protocol: To study the pharmacokinetics parameters and the bioavailability of VIII-9, VIII-10 and SIPI5286 when single i.v. and oral administration in SD rat
# Eighteen male rats were randomized into 6 groups and were administrated with the three compounds via i.v. and oral route, respectively. The dosage was 10 mg/kg (IV) and 50 mg/kg (PO). The test substance was dissolved in the solution of 5% DMSO/95% HP-β-CD aqueous solution (30%), and were administrated to the animal via i.v. and oral route. Blood plasma was collected at a serial of time points after i.v. and oral administration, and the blood drug concentrations were determined by LC/MS/MS. Then the pharmacokinetics parameters and the bioavailability were calculated based on the blood drug concentrations.
smiles,measurement,setting,value
"CCCC[C@H]([C@@H](O)c1ccc2c(Cl)c(OC)ccc2c1)N1CCN(CC=Cc2ccccc2)CC1 (racemic) [VIII-21, (1SR,2RS)-N^1-cinnamyl-N^4-[1-butyl-2-(5′-chloro-6′-methoxyl-2′-naphthyl)hydroxyethyl]piperazine]",inhibition on the reuptake of NA(%),[1],87.5%
same,Inhibition on the reuptake of 5-HT(%),[2],81%
same,inhibition on the reuptake of DA(%),[3],90%
"CCCC[C@@H]([C@H](O)c1ccc2c(Cl)c(OC)ccc2c1)N1CCN(c2ccccc2OC)CC1 (racemic) [VIII-3, (1SR,2RS)-N^1-o-methoxylphenyl-N^4-[1-butyl-2-(5′-chloro-6′-methoxyl-2′-naphthyl)hydroxyethyl]piperazine]",inhibition on the reuptake of NA(%),[1],144%
same,Inhibition on the reuptake of 5-HT(%),[2],65.1%
same,inhibition on the reuptake of DA(%),[3],96%
"CCCC[C@H]([C@H](O)c1ccc2c(Cl)c(OC)ccc2c1)N1CCN(C(c2ccccc2)c2ccccc2)CC1 (racemic) [VIII-20, (1SR,2SR)-N^1-benzhydryl-N^4-[1-butyl-2-(5′-chloro-6′-methoxyl-2′-naphthyl)hydroxyethyl]piperazine]",inhibition on the reuptake of NA(%),[1],78%
same,Inhibition on the reuptake of 5-HT(%),[2],0%
same,inhibition on the reuptake of DA(%),[3],57%
"CCCC[C@H]([C@@H](O)c1ccc2c(Cl)c(OC)ccc2c1)N1CCN(C(c2ccccc2)c2ccccc2)CC1 (racemic) [VIII-19, (1SR,2RS)-N^1-benzhydryl-N^4-[1-butyl-2-(5′-chloro-6′-methoxyl-2′-naphthyl)hydroxyethyl]piperazine]",inhibition on the reuptake of NA(%),[1],103.6%
same,Inhibition on the reuptake of 5-HT(%),[2],73.4%
same,inhibition on the reuptake of DA(%),[3],95%
"CCCC[C@@H]([C@@H](O)c1ccc2c(Cl)c(OC)ccc2c1)N1CCN(c2ccccc2OC)CC1 (racemic) [VIII-4, (1SR,2SR)-N^1-o-methoxylphenyl-N^4-[1-butyl-2-(5′-chloro-6′-methoxyl-2′-naphthyl)hydroxyethyl]piperazine]",inhibition on the reuptake of NA(%),[1],146.5%
same,Inhibition on the reuptake of 5-HT(%),[2],23%
same,inhibition on the reuptake of DA(%),[3],68%
"COc1ccc(C(CN(C)C)C2(O)CCCCC2)cc1 (centres unmarked) [venlafaxine, reference compound]",inhibition on the reuptake of NA(%),[1],100%
same,swimming test: immobility time,"ICR mice; one week oral administration, 50 mg/kg",83.5 ± 29.0 s
"COc1ccc2cc([C@@H](O)[C@H](C)N3CCN(Cc4ccccc4)CC3)ccc2c1Cl [SIPI5286, reference compound]",IC50,[4],12 nM
same,IC50,[5],1150 nM
same,IC50,[6],185 nM
same,Cmax,"[7]; iv, i.v. 10 mg/kg, (5 min)",13900 ng/mL
same,AUC (0-t),"[7]; iv, i.v. 10 mg/kg",12600 ng·h/mL
same,half-life,"[7]; iv, i.v. 10 mg/kg",3.41 h
same,bioavailability,"[7]; oral 50 mg/kg vs i.v. 10 mg/kg, read-out: bioavailability",51.6%
same,AUC (0-t),[7]; oral 50 mg/kg,30300 ng·h/mL
same,Cmax,[7]; oral 50 mg/kg,6860 ng/mL
same,Tmax,"[7]; oral 50 mg/kg, read-out: Tmax",0.5 h
same,half-life,[7]; oral 50 mg/kg,5.71 h
same,ED50,"ICR mice; Mus musculus, single oral administration",28.9 mg/kg
same,swimming test: immobility time,"ICR mice; one week oral administration, 10.4 mg/kg",123.8 ± 21.68 s
same,swimming test: immobility time,"ICR mice; one week oral administration, 17.3 mg/kg",102.9 ± 37.94 s
same,swimming test: immobility time,"ICR mice; one week oral administration, 28.8 mg/kg",97.2 ± 28.33 s
same,swimming test: immobility time,"ICR mice; one week oral administration, 48 mg/kg",95.5 ± 27.0 s
same,swimming test: immobility time,"ICR mice; single oral administration, 10.4 mg/kg",107.9 ± 37.19 s
same,swimming test: immobility time,"ICR mice; single oral administration, 17.3 mg/kg",105.4 ± 33.11 s
same,swimming test: immobility time,"ICR mice; single oral administration, 28.8 mg/kg",92.1 ± 23.11 s
same,swimming test: immobility time,"ICR mice; single oral administration, 48 mg/kg",90.1 ± 26.02 s
"CCCC[C@@H]([C@@H](O)c1ccc2c(Cl)c(OC)ccc2c1)N1CCN(CC=Cc2ccccc2)CC1 (racemic) [VIII-22, (1SR,2SR)-N^1-cinnamyl-N^4-[1-butyl-2-(5′-chloro-6′-methoxyl-2′-naphthyl)hydroxyethyl]piperazine]",inhibition on the reuptake of NA(%),[1],78.9%
same,Inhibition on the reuptake of 5-HT(%),[2],82.3%
same,inhibition on the reuptake of DA(%),[3],94%
"COc1ccc2cc(C(O)C(C)N3CCN(Cc4ccccc4)CC3)ccc2c1Cl (centres unmarked) [SIPIyy24, N^1-benzyl-N^4-[1-methyl-2-(5′-chloro-6′-methoxyl-2′-naphthyl) hydroxyethyl]piperazine, reference compound]",IC50,[4],200 nM
same,IC50 [^3H]DA reuptake,[5],No activity detected
same,IC50,[6],1000 nM
"NCCc1cc(O)c(O)cc1O [6-hydroxy DA, reference compound]",inhibition on the reuptake of DA(%),[3],100%
